Consider twelve molecules from publication PMC7830545, “Rational Design of CYP3A4 Inhibitors: A One-Atom Linker Elongation in Ritonavir-Like Compounds Leads to a Marked Improvement in the Binding Strength” (International Journal of Molecular Sciences, 2021).

The target in data set [1] is T1, CYP3A4 (Homo sapiens, UniProt P08684). Description: Stopped-flow kinetics of ligand binding. On the set-up: Codon-optimized full-length and Δ3–22 human CYP3A4 were produced as reported previously [45] and used for assays and crystallization, respectively; made in house. The conditions noted are these: for k fast: rate constant for the fast phase of the ligand binding reaction; for percentage of the fast phase: value in brackets of k fast column. How it is done: (§1) Kinetics of Ligand Binding and Heme Reduction—Kinetics of ligand binding to CYP3A4 and its reduction with sodium dithionite were measured at 426 and 443 nm, respectively, in a SX.18MV stopped flow apparatus (Applied Photophysics, UK), as described earlier.
T1 sequence (P08684 whole entry): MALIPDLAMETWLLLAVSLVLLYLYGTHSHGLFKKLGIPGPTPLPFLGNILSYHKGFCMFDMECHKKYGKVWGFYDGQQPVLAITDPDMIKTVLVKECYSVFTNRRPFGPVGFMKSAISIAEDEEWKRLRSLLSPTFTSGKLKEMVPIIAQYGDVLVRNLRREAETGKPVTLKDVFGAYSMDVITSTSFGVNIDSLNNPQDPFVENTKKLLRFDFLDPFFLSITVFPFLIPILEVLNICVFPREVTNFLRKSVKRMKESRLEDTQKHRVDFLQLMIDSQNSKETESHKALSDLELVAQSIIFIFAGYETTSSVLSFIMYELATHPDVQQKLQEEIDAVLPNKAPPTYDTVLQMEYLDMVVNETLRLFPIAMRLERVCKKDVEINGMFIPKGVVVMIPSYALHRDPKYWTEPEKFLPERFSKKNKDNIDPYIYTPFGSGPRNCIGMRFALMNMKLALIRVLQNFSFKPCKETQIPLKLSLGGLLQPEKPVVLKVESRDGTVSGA

The target of data set [2] is T1, CYP3A4. Description: Inhibitory potency for BFC O-debenzylation activity in a soluble reconstituted system. It is filed as biochemical. Also on record: The full-length CYP3A4 and rat cytochrome P450 reductase (40 and 60 μM, respectively) were preincubated; made in house. The conditions noted are these: BFC debenzylase activity, 0.1 μM CYP3A4 with cytochrome P450 reductase, no NADPH preincubation.

The target of data set [3] is T1, CYP3A4. Description: H2O2-dependent heme depletion assay. Conditions: for % decay (heme destroyed at the end of the reaction): 1.6 μM CYP3A4, 16 μM inhibitor, 10 mM H2O2, 120 min, relative to ligand-free CYP3A4 (100% decay); for heme preserved: 10 mM H2O2, end of the reaction; for higher heme loss: weaker ligands compared with the strongest binders/inhibitors. Also on record: Codon-optimized full-length and Δ3–22 human CYP3A4 were produced as reported previously [45] and used for assays and crystallization, respectively; made in house.

Data set [4] concerns the target T1, CYP3A4. Description: Thermal denaturation (melting temperature of ligand-bound CYP3A4). It counts as binding. Also on record: Codon-optimized full-length and Δ3–22 human CYP3A4 were produced as reported previously [45] and used for assays and crystallization, respectively; made in house. The conditions noted are these: 1 μM protein, 20 μM ligand; for ΔTm at 15 min, 20 μM: human, purified CYP3A4 protein, pH 7.4, ligand-dependent change in melting temperature; for ΔTm: ligand-dependent change in melting temperature. The method, then: Thermal Denaturation—Thermal denaturation curves were recorded in 0.1 M phosphate buffer, pH 7.4, in a Cary 300 spectrophotometer. Protein (1 μM) was mixed with a ligand (20 μM) and incubated for 15 min at 23 °C. Melting curves were recorded at 260 nm using a 0.2 °C measurement step, 0.9 °C/min ramp rate, and a 50–75 °C temperature range. A denaturation midpoint (melting temperature; Tm) was determined from non-linear fittings to the melting curve as described earlier.

Data set [5] has as its target T1, CYP3A4. Description: Spectral binding titrations (equilibrium ligand binding, type II spectral change). Also on record: Codon-optimized full-length and Δ3–22 human CYP3A4 were produced as reported previously [45] and used for assays and crystallization, respectively; made in house. The conditions noted are these: for Kd: WT CYP3A4, 2 μM protein, pH 7.4, quadratic fits to titration plots, read-out: Ks (spectral dissociation constant); for λmax (nm) Ferric: ferric inhibitor-bound CYP3A4, Soret band; for λmax (nm) ferrous: ferrous inhibitor-bound CYP3A4, Soret band; for ΔAmax: maximal absorbance change (peak/trough in difference spectrum) relative to that induced by ritonavir; for A421/417: ratio between the absorbance maxima of ferric ligand-bound and ligand-free CYP3A4.

The target in data set [6] is T1, CYP3A4. As to the kind of experiment: Kinetics of heme reduction of inhibitor-bound CYP3A4 with sodium dithionite. Also on record: Codon-optimized full-length and Δ3–22 human CYP3A4 were produced as reported previously [45] and used for assays and crystallization, respectively; made in house. The conditions noted are these: for portion of the protein reduced: k ET, heme reduction by sodium dithionite; for k ET: rate constant for reduction of inhibitor-bound CYP3A4 with sodium dithionite.
Excerpt: Ritonavir-like molecules inhibit CYP3A4 not only via heme ligation and decrease in the heme redox potential but also by blocking the active site and preventing substrates from accessing the catalytic centre. We usually evaluate the heme accessibility by measuring the rate and percentage of anaerobic heme reduction by sodium dithionite, an artificial electron donor (k^ET in Table 1). […] Therefore, we utilized another method, heme bleaching with hydrogen peroxide, to probe the accessibility of the cofactor. H2O2 is a small oxidizing agent that easily penetrates the protein interior and destroys the heme without altering the P450 structure. Due to the complex, multiphasic nature of heme decay kinetics, it was more convenient to compare the percentage of heme destroyed at the end of the reaction.
as §1

The target of another data set is T2, K421A/K424A CYP3A4 (Homo sapiens, UniProt P08684, K421A/K424A).
T2 construct: made in house
T2 sequence (P08684 with tags, fused parts or gaps K421A/K424A): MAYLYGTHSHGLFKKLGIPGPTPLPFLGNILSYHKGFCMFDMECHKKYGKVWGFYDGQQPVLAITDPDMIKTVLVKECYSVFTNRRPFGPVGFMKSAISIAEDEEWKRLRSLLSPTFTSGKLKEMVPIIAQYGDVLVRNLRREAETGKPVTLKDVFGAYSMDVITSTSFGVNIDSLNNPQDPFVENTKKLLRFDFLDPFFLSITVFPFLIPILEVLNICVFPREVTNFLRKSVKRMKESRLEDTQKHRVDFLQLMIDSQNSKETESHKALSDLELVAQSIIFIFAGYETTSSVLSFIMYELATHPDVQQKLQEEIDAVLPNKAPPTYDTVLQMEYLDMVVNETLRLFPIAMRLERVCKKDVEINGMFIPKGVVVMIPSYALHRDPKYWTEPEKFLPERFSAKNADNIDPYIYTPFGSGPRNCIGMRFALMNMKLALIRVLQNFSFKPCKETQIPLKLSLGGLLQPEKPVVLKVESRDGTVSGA
As to the kind of experiment: Spectral binding titrations with the K421A/K424A mutant. Conditions: read-out: Ks (dissociation constant).

Usually IC50 stands for the concentration that gives 50% inhibition. In general, ΔTm refers to the shift of the melting midpoint relative to a reference.

For `CC(C)(C)OC(=O)NC(CSC(Cc1ccccc1)C(=O)NCCCc1cccnc1)Cc1ccccc1` (centres unmarked) [Compound 3a], on CYP3A4 [1], the k fast is 12.5 s⁻¹ and the “percentage of the fast phase” value worked out at 36%. The molecule also had a 50% inhibitory concentration (IC50) against CYP3A4 [2] of 160 ± 20 nM. At CYP3A4 [3], the “% decay (heme destroyed at the end of the reaction)” value (“% decay” for short) is 18% and the heme preserved is > 80%. The shift in melting temperature (ΔTm) at 15 min, 20 μM at CYP3A4 [4] amounted to 8.1 °C.
Take `CC(C)(C)OC(=O)NC(CSC(Cc1ccccc1)C(=O)NCCCc1cccnc1)Cc1ccccc1` (centres unmarked) [Compound 3b]: on CYP3A4 [5], the Kd was found to be 29 ± 4 nM, the “λmax (nm) Ferric” value came out at 421 nm, the “λmax (nm) ferrous” value is given as 443 nm and the ΔAmax was found to be 111%. The A421/417 on CYP3A4 [5] amounted to 1.08. The molecule further had a half-maximal inhibitory concentration (IC50) at CYP3A4 [2] of 300 ± 20 nM. At CYP3A4 [3], the “% decay” value was determined as 26% and the higher heme loss was 4–16%. Also, on CYP3A4 [4], the ΔTm was found to be 5.3 °C. Also, at CYP3A4 [6], the “portion of the protein reduced” value is given as 87% and the “k ET” value was determined as 0.014 s⁻¹.
As for `CC(C)(C)OC(=O)N[C@H](CS[C@@H](Cc1ccccc1)C(=O)NCCCc1cccnc1)Cc1ccccc1` [Compound 3c], the 50% inhibitory concentration (IC50) on CYP3A4 [2] came to 310 ± 40 nM. For the same molecule, the ΔTm at 15 min, 20 μM on CYP3A4 [4] was found to be 5.8 °C. Also, at CYP3A4 [6], the “portion of the protein reduced” value turned out to be 77% and the “k ET” value stood at 0.012 s⁻¹.
Turning to `CC(C)(C)OC(=O)N[C@@H](CS[C@H](Cc1ccccc1)C(=O)NCCCc1cccnc1)Cc1ccccc1` [Compound 3d], at CYP3A4 [1], the k fast turned out to be 12.0 s⁻¹ and the “percentage of the fast phase” value is recorded as 38%. Besides, inhibition against CYP3A4 [2] was half-maximal at 210 ± 20 nM (IC50). Besides, at CYP3A4 [3], the “% decay” value was found to be 22%. Moreover, the shift in melting temperature (ΔTm) at 15 min, 20 μM at CYP3A4 [4] is 5.6 °C. Besides, the Kd on K421A/K424A CYP3A4 was 19 nM. Further, at CYP3A4 [6], the “portion of the protein reduced” value turned out to be 95% and the “k ET” value worked out at 0.013 s⁻¹.
For the molecule `CC(C)(C)OC(=O)N[C@H](CS[C@H](Cc1ccccc1)C(=O)NCCCc1cccnc1)Cc1c[nH]c2ccccc12` [Compound 3e], on CYP3A4 [5], the Kd is 19 ± 2 nM, the “λmax (nm) Ferric” value was 422 nm, the “λmax (nm) ferrous” value is 444 nm and the ΔAmax is recorded as 125%. Also, the A421/417 on CYP3A4 [5] came to 1.11. Besides, the “fold decrease in Ks” value at CYP3A4 [5] (relative to shorter pyridyl-ethyl counterpart 7b (series IV)) was determined as 4 fold. Besides, at CYP3A4 [1], the k fast turned out to be 20.1 s⁻¹ and the “percentage of the fast phase” value amounted to 24%. 150 ± 30 nM corresponded to half-maximal inhibition against CYP3A4 [2] (IC50). Besides, on CYP3A4 [3], the “% decay” value came out at 18% and the heme preserved is listed as > 80%. In addition, the ΔTm at 15 min, 20 μM on CYP3A4 [4] was 7.8 °C. At CYP3A4 [6], the “portion of the protein reduced” value is 85% and the “k ET” value turned out to be 0.020 s⁻¹.
On CYP3A4 [2], `CC(C)(C)OC(=O)NC(CSC(Cc1ccccc1)C(=O)NCCCc1cccnc1)Cc1cccc2ccccc12` (centres unmarked) [Compound 3f] gave an IC50 of 160 ± 30 nM. Besides, on CYP3A4 [3], the “% decay” value is given as 15% and the heme preserved is given as > 80%. For the same molecule, the thermal shift (ΔTm) at 15 min, 20 μM on CYP3A4 [4] amounted to 7.9 °C. Besides, at CYP3A4 [6], the “portion of the protein reduced” value was found to be 94% and the “k ET” value was found to be 0.011 s⁻¹.
For the molecule `CC(C)(C)OC(=O)NC(CSC(Cc1ccccc1)C(=O)NCCCc1cccnc1)Cc1cccc2ccccc12` (centres unmarked) [Compound 3g], at CYP3A4 [5], the Kd was 24 ± 6 nM, the “λmax (nm) Ferric” value was 422 nm, the “λmax (nm) ferrous” value turned out to be 444 nm and the ΔAmax is on record as 111%. In addition, at CYP3A4 [5], the A421/417 was 1.09. For the same molecule, on CYP3A4 [1], the k fast is 10.8 s⁻¹ and the “percentage of the fast phase” value was 32%. For the same molecule, the half-maximal inhibitory concentration (IC50) on CYP3A4 [2] is 300 ± 60 nM. Moreover, at CYP3A4 [3], the “% decay” value is listed as 22% and the higher heme loss is listed as 4–16%. The shift in melting temperature (ΔTm) at CYP3A4 [4] was determined as 4.9 °C. Further, at CYP3A4 [6], the “portion of the protein reduced” value is recorded as 75% and the “k ET” value turned out to be 0.011 s⁻¹.
For the molecule `CC(C)(C)OC(=O)N[C@H](CS[C@@H](Cc1ccccc1)C(=O)NCCCc1cccnc1)Cc1cccc2ccccc12` [Compound 3h], at CYP3A4 [5], the Kd is 7 ± 1 nM, the “λmax (nm) Ferric” value turned out to be 422 nm, the “λmax (nm) ferrous” value worked out at 444 nm and the ΔAmax is 112%. Further, the A421/417 on CYP3A4 [5] worked out at 1.09. Further, on CYP3A4 [1], the k fast was determined as 16.1 s⁻¹ and the “percentage of the fast phase” value is recorded as 24%. Besides, on CYP3A4 [2], the IC50 came to 90 ± 10 nM. Also, at CYP3A4 [3], the “% decay” value came out at 12% and the heme preserved is reported as > 80%. In addition, at CYP3A4 [6], the “portion of the protein reduced” value is 72% and the “k ET” value came out at 0.017 s⁻¹.
With `CC(C)(C)OC(=O)N[C@@H](CS[C@H](Cc1ccccc1)C(=O)NCCCc1cccnc1)Cc1cccc2ccccc12` [Compound 3i], at CYP3A4 [5], the Kd was 18 ± 3 nM, the “λmax (nm) Ferric” value was 422 nm, the “λmax (nm) ferrous” value was 444 nm and the ΔAmax amounted to 114%. Further, the A421/417 on CYP3A4 [5] is on record as 1.10. Besides, at CYP3A4 [1], the k fast came out at 12.3 s⁻¹ and the “percentage of the fast phase” value came to 24%. Inhibition on CYP3A4 [2] was half-maximal at 150 ± 20 nM (IC50). Moreover, the “% decay” value on CYP3A4 [3] was 23%. For the same molecule, on CYP3A4 [4], the ΔTm at 15 min, 20 μM turned out to be 5.5 °C. Also, the Kd at K421A/K424A CYP3A4 turned out to be 25 nM. On CYP3A4 [6], the “portion of the protein reduced” value was 97% and the “k ET” value was determined as 0.021 s⁻¹.
For `CC(C)(C)OC(=O)NC(CSCC(Nc1ccccc1)C(=O)NCc1cccnc1)Cc1cccc2ccccc12` (centres unmarked) [Compound 5b, reference compound], the “% decay” value on CYP3A4 [3] is reported as 25%.
`CC(C)(C)OC(=O)NC(CSC(Cc1ccccc1)C(=O)NCCOCc1cccnc1)Cc1ccccc1` (centres unmarked) [Compound 6]: on CYP3A4 [5], the Kd was determined as 213 ± 9 nM, the “λmax (nm) Ferric” value is 422 nm, the “λmax (nm) ferrous” value is reported as 443 nm and the ΔAmax came to 113%. Moreover, the A421/417 at CYP3A4 [5] was determined as 1.07. On CYP3A4 [1], the k fast was 9.5 s⁻¹ and the “percentage of the fast phase” value came to 29%. In addition, half-maximal inhibition against CYP3A4 [2] (IC50) was put at 730 ± 60 nM. Also, on CYP3A4 [3], the “% decay” value worked out at 34% and the higher heme loss is 4–16%. The thermal shift (ΔTm) at 15 min, 20 μM on CYP3A4 [4] is < 3 °C. In addition, at CYP3A4 [6], the “portion of the protein reduced” value was 65% and the “k ET” value was found to be 0.017 s⁻¹.
Turning to `CC(C)(C)OC(=O)NC(CSCC(Nc1ccccc1)C(=O)NCCCc1cccnc1)Cc1ccccc1` (centres unmarked) [Compound 8], on CYP3A4 [5], the Kd was 28 ± 4 nM, the “λmax (nm) Ferric” value worked out at 422 nm, the “λmax (nm) ferrous” value is recorded as 444 nm and the ΔAmax was 114%. Further, at CYP3A4 [5], the A421/417 is 1.10. Moreover, at CYP3A4 [1], the k fast worked out at 16.2 s⁻¹ and the “percentage of the fast phase” value is reported as 30%. Moreover, the IC50 against CYP3A4 [2] was found to be 330 ± 30 nM. Besides, the “% decay” value at CYP3A4 [3] was 22%. Moreover, the ΔTm at 15 min, 20 μM on CYP3A4 [4] turned out to be 5 °C. Also, on CYP3A4 [6], the “portion of the protein reduced” value was determined as 58% and the “k ET” value is 0.018 s⁻¹.
